Tests used:
Assay in all cases: biochemical
[1] = biological target: T1, 371 kinases (kinase named in each endpoint) (Homo sapiens, UniProt Q56UN5); settings: YSK4/MAP3K19
T1 construct: purchased Reaction Biology

[2] = biological target: T2, 371 kinases (kinase named in each endpoint) (Homo sapiens, UniProt P51955); settings: NEK2
T2 construct: purchased Reaction Biology

[3] = biological target: T3, 371 kinases (kinase named in each endpoint) (Homo sapiens, UniProt P54760); settings: EPHB4
T3 construct: purchased Reaction Biology

[4] = biological target: T4, 371 kinases (kinase named in each endpoint) (Homo sapiens, UniProt Q96GX5); settings: MASTL
T4 construct: purchased Reaction Biology

[5] = biological target: T5, 371 kinases (kinase named in each endpoint) (Homo sapiens, UniProt Q8IYT8); settings: ULK2
T5 construct: purchased Reaction Biology

[6] = biological target: T6, 371 kinases (kinase named in each endpoint) (Homo sapiens, UniProt Q86YV6); settings: MYLK4
T6 construct: purchased Reaction Biology

[7] = biological target: T7, 371 kinases (kinase named in each endpoint) (Homo sapiens, UniProt Q8IW41); settings: MAPKAPK5/PRAK
T7 construct: purchased Reaction Biology

[8] = biological target: T8, 371 kinases (kinase named in each endpoint) (Homo sapiens, UniProt O43187); settings: IRAK2
T8 construct: purchased Reaction Biology

[9] = biological target: T9, 371 kinases (kinase named in each endpoint) (Homo sapiens, UniProt Q9BXA6); settings: SSTK/TSSK6
T9 construct: purchased Reaction Biology

[10] = biological target: T10, 371 kinases (kinase named in each endpoint) (Homo sapiens, UniProt P09619); settings: PDGFRB
T10 construct: purchased Reaction Biology
T10 sequence (P09619 33-1106): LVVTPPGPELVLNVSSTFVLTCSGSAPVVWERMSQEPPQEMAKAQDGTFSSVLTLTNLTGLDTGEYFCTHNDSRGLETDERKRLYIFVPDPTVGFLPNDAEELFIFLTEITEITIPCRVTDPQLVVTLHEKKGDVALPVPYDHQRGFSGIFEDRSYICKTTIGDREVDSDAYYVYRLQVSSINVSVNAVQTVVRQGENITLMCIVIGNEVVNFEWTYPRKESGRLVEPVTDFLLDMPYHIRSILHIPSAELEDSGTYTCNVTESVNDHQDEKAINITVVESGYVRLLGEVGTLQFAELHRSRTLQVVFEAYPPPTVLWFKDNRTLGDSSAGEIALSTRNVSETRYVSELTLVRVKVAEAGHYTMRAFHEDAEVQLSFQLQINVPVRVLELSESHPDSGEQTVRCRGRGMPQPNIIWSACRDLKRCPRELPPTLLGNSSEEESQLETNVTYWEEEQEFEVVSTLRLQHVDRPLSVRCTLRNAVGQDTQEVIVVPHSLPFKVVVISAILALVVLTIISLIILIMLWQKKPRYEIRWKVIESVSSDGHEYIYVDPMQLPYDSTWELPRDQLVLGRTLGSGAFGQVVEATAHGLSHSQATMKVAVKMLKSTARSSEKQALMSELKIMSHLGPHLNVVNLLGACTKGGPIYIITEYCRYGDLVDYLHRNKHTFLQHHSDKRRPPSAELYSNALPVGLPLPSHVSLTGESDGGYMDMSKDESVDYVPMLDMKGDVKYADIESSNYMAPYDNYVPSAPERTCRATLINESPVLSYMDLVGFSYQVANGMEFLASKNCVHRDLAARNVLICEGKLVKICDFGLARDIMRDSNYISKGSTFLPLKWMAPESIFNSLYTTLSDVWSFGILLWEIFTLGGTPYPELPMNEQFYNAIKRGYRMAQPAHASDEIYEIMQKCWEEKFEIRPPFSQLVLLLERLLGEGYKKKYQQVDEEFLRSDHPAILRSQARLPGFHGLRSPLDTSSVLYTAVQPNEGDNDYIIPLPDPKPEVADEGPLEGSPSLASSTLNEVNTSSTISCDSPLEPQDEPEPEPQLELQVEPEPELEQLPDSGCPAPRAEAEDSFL

[11] = biological target: T11, 371 kinases (kinase named in each endpoint) (Homo sapiens, UniProt Q16566); settings: CAMK4
T11 construct: purchased Reaction Biology
T11 sequence (Q16566 whole entry): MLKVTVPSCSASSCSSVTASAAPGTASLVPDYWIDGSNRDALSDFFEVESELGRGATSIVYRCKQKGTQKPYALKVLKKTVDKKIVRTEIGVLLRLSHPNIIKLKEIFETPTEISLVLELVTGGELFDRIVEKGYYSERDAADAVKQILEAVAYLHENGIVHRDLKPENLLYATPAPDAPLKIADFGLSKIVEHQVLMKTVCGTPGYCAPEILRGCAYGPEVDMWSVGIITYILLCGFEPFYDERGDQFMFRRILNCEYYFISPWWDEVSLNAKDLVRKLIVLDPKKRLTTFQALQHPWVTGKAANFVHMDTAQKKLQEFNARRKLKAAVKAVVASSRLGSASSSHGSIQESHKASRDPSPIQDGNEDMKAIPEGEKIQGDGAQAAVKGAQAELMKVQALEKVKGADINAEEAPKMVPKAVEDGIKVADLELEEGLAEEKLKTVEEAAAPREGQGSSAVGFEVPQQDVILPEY

[12] = biological target: T12, 371 kinases (kinase named in each endpoint) (Homo sapiens, UniProt P20794); settings: MAK
T12 construct: purchased Reaction Biology

[13] = biological target: T13, 371 kinases (kinase named in each endpoint) (Homo sapiens, UniProt Q04912); settings: RON/MST1R
T13 construct: purchased Reaction Biology

[14] = biological target: T14, 371 kinases (kinase named in each endpoint) (Homo sapiens, UniProt Q04771); settings: ALK2/ACVR1
T14 construct: purchased Reaction Biology

[15] = biological target: T15, 371 kinases (kinase named in each endpoint) (Homo sapiens, UniProt Q9H4B4); settings: PLK3
T15 construct: purchased Reaction Biology

[16] = biological target: T16, 371 kinases (kinase named in each endpoint) (Homo sapiens, UniProt P41240); settings: CSK
T16 construct: purchased Reaction Biology

[17] = biological target: T17, 371 kinases (kinase named in each endpoint) (Homo sapiens, UniProt Q8IY84); settings: NIM1
T17 construct: purchased Reaction Biology

[18] = biological target: T18, 371 kinases (kinase named in each endpoint) (Homo sapiens, UniProt P22694); settings: PKACB
T18 construct: purchased Reaction Biology

[19] = biological target: T19, 371 kinases (kinase named in each endpoint) (Homo sapiens, UniProt O75716); settings: STK16
T19 construct: purchased Reaction Biology

[20] = biological target: T20, 371 kinases (kinase named in each endpoint) (Homo sapiens, UniProt Q8NEV4); settings: MYO3A
T20 construct: purchased Reaction Biology

[21] = biological target: T21, 371 kinases (kinase named in each endpoint) (Homo sapiens, UniProt O95835); settings: LATS1
T21 construct: purchased Reaction Biology

[22] = biological target: T22, 371 kinases (kinase named in each endpoint) (Homo sapiens, UniProt Q6DT37); settings: DMPK2
T22 construct: purchased Reaction Biology
T22 sequence (Q6DT37 whole entry): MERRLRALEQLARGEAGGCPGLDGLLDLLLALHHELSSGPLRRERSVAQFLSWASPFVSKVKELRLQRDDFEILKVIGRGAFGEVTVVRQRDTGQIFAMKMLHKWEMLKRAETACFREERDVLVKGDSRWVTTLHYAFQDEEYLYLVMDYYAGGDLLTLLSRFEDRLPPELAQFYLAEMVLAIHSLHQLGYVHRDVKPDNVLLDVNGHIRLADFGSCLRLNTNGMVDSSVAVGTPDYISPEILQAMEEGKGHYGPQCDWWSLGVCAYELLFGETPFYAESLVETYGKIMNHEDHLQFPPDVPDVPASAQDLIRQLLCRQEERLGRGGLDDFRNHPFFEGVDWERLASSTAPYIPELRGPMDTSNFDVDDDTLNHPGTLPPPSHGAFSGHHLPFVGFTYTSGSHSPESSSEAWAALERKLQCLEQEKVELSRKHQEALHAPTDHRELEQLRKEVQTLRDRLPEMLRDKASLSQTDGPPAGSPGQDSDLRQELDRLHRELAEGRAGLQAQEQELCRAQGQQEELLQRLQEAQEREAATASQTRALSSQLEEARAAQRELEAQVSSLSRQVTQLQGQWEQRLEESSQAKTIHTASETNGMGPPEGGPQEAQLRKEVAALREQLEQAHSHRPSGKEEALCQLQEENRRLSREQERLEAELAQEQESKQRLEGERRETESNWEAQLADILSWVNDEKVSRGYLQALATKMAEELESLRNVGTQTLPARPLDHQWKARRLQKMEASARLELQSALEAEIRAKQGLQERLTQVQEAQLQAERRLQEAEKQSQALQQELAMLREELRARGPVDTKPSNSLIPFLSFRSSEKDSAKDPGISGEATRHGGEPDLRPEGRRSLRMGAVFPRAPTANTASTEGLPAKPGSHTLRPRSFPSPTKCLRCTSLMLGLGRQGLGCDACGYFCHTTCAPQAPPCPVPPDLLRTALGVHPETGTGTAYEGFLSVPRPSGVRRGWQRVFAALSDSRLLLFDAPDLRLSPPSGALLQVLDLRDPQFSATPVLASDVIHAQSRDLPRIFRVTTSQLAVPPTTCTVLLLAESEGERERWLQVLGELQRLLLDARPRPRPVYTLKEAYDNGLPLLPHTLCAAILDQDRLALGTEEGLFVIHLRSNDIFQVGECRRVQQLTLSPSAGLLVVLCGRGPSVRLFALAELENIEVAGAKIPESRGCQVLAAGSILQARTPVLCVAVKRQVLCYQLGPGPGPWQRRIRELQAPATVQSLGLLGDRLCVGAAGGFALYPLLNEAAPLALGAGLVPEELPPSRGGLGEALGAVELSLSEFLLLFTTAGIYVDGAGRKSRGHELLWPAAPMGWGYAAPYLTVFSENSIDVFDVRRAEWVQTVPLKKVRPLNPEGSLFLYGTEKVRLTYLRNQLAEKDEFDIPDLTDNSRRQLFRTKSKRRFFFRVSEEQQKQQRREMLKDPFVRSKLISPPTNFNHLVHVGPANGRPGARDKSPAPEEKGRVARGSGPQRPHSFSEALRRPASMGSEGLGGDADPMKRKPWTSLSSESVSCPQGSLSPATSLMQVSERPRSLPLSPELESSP

[23] = biological target: T23, 371 kinases (kinase named in each endpoint) (Homo sapiens, UniProt Q15139); settings: PKCMU/PRKD1
T23 construct: purchased Reaction Biology

[24] = biological target: T24, 371 kinases (kinase named in each endpoint) (Homo sapiens, UniProt P51617); settings: IRAK1
T24 construct: purchased Reaction Biology

[25] = biological target: T25, 371 kinases (kinase named in each endpoint) (Homo sapiens, UniProt Q9Y2H1); settings: STK38L/NDR2
T25 construct: purchased Reaction Biology
T25 sequence (Q9Y2H1 whole entry): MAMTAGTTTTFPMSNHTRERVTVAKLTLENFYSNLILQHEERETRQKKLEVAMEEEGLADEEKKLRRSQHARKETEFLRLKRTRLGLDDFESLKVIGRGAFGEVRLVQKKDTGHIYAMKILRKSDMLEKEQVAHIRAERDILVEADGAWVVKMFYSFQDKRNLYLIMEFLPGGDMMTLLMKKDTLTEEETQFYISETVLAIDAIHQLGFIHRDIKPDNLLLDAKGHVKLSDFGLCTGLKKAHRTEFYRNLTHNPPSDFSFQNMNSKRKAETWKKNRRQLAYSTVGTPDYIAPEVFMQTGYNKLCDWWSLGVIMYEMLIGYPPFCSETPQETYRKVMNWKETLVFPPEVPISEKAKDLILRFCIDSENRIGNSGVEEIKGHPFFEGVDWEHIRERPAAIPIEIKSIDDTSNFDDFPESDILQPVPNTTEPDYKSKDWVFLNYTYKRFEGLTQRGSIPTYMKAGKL

[26] = biological target: T26, 371 kinases (kinase named in each endpoint) (Homo sapiens, UniProt Q9P0L2); settings: MARK1
T26 construct: purchased Reaction Biology

[27] = biological target: T27, 371 kinases (kinase named in each endpoint) (Homo sapiens, UniProt Q02763); settings: TIE2/TEK
T27 construct: purchased Reaction Biology

[28] = biological target: T28, 371 kinases (kinase named in each endpoint) (Homo sapiens, UniProt Q8N568); settings: DCAMKL2
T28 construct: purchased Reaction Biology

[29] = biological target: T29, 371 kinases (kinase named in each endpoint) (Homo sapiens, UniProt P31749); settings: AKT1
T29 construct: purchased Reaction Biology
T29 sequence (P31749 whole entry): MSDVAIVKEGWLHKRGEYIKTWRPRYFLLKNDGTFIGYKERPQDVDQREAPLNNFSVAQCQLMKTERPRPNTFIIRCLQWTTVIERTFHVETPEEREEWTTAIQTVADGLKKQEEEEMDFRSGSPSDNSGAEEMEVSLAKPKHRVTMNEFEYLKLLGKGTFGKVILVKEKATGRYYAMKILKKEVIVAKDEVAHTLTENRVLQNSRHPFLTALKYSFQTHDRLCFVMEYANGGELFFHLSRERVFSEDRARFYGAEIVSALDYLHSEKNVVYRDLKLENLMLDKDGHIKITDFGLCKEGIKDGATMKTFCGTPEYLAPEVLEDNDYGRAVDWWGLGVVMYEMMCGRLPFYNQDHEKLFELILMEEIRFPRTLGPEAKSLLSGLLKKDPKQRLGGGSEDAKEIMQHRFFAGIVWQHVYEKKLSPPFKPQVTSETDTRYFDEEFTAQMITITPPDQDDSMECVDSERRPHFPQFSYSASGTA

[30] = biological target: T30, 371 kinases (kinase named in each endpoint) (Homo sapiens, UniProt Q96PN8); settings: TSSK3/STK22C
T30 construct: purchased Reaction Biology

[31] = biological target: T31, 371 kinases (kinase named in each endpoint) (Homo sapiens, UniProt Q13043); settings: MST1/STK4
T31 construct: purchased Reaction Biology
T31 sequence (Q13043 whole entry): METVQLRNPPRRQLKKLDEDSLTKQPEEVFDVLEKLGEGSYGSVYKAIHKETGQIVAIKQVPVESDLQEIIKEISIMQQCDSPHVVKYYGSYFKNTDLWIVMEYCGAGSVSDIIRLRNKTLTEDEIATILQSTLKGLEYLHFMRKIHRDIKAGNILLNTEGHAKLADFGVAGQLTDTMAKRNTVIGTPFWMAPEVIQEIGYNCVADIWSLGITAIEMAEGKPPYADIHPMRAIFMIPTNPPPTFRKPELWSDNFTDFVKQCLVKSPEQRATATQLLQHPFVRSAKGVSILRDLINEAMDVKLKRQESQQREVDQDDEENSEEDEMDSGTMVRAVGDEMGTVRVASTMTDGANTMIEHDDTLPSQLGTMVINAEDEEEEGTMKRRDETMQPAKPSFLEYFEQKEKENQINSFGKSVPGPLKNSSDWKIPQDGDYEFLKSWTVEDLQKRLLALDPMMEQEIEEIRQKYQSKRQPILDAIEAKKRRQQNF

[32] = biological target: T32, 371 kinases (kinase named in each endpoint) (Homo sapiens, UniProt P52564); settings: MKK6
T32 construct: purchased Reaction Biology

[33] = biological target: T33, 371 kinases (kinase named in each endpoint) (Homo sapiens, UniProt Q6IQ55); settings: TTBK2
T33 construct: purchased Reaction Biology

[34] = biological target: T34, 371 kinases (kinase named in each endpoint) (Homo sapiens, UniProt P09769); settings: FGR
T34 construct: purchased Reaction Biology
T34 sequence (P09769 whole entry): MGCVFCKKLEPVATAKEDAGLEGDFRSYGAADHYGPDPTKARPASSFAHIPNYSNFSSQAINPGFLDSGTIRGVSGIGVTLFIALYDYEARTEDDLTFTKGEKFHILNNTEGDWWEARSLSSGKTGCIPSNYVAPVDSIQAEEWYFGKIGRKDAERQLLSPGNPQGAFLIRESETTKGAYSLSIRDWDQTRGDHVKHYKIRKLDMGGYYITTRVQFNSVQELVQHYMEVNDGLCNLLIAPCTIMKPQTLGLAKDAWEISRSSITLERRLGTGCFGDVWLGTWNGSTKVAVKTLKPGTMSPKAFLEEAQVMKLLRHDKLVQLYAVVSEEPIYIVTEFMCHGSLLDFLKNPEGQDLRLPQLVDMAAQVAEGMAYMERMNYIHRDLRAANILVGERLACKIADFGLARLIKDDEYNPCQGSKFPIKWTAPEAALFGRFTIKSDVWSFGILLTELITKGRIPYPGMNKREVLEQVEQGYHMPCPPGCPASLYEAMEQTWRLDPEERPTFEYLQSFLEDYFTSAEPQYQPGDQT

[35] = biological target: T35, 371 kinases (kinase named in each endpoint) (Homo sapiens, UniProt Q6VAB6); settings: KSR2
T35 construct: purchased Reaction Biology

[36] = biological target: T36, 371 kinases (kinase named in each endpoint) (Homo sapiens, UniProt P29376); settings: TYK1/LTK
T36 construct: purchased Reaction Biology

[37] = biological target: T37, 371 kinases (kinase named in each endpoint) (Homo sapiens, UniProt O14578); settings: STK21/CIT
T37 construct: purchased Reaction Biology

In the case of `O=C(O)c1cc(C(F)(F)F)ccc1NCCc1c[nH]c2cc(Br)ccc12` [Compound 5, 2-((2-(6-Bromo-1H-indol-3-yl)ethyl)amino)−5-(trifluoromethyl)benzoic Acid], the activity at 10 µM [1] is reported as 110.3 ± 0.7%, the activity at 10 µM [2] is reported as 50.8 ± 1.3% and the activity at 10 µM [3] is reported as 91.7 ± 0.5%. For the same compound, the activity at 10 µM [4] was 101.7 ± 0.2%, the activity at 10 µM [5] was 102.4 ± 0.4% and the activity at 10 µM [6] was 78.7 ± 0.2%. For the same compound, the activity at 10 µM [7] was 95.4 ± 2%, the activity at 10 µM [8] was 145 ± 0.9% and the activity at 10 µM [9] was 102 ± 3%. It also gave an activity at 10 µM [10] of 92.5 ± 0.1%, an activity at 10 µM [11] of 27.5 ± 6.5% and an activity at 10 µM [12] of 81.6 ± 0.5%. For the same compound, the activity at 10 µM [13] was 89.7 ± 2.7%, the activity at 10 µM [14] was 74.1 ± 1.8% and the activity at 10 µM [15] was 79.3 ± 3.7%. It also gave an activity at 10 µM [16] of 100.9 ± 0.9%, an activity at 10 µM [17] of 88.9 ± 1% and an activity at 10 µM [18] of 93.4 ± 0.4%. The activity at 10 µM [19] was 80.4 ± 1.1%, the activity at 10 µM [20] was 118 ± 3.4% and the activity at 10 µM [21] was 93 ± 3.5%. It also gave an activity at 10 µM [22] of 96.2 ± 1.7%, an activity at 10 µM [23] of 115.9 ± 0.9% and an activity at 10 µM [24] of 102 ± 2.5%. For the same compound, the activity at 10 µM [25] was 94 ± 0.9%, the activity at 10 µM [26] was 93.3 ± 0.5% and the activity at 10 µM [27] was 93.7 ± 0.9%. For the same compound, the activity at 10 µM [28] was 101.3 ± 0.6%, the activity at 10 µM [29] was 93.4 ± 0.2% and the activity at 10 µM [30] was 68.9 ± 0.2%. The activity at 10 µM [31] was 89.6 ± 2.7%, the activity at 10 µM [32] was 101 ± 0.2% and the activity at 10 µM [33] was 105 ± 1.1%. It also gave an activity at 10 µM [34] of 83.5 ± 1.1%, an activity at 10 µM [35] of 83.3 ± 1.5% and an activity at 10 µM [36] of 86.2 ± 1.1%. It also gave an activity at 10 µM [37] of 102.1 ± 0.3%.

— paper PMC10239507, “Development of allosteric and selective CDK2 inhibitors for contraception with negative cooperativity to cyclin binding” (Nature Communications, 2023)
